Patent US20090087495A1, “Food for Improving Motor Function” (Nippon Meat Packers, Inc., priority 2005, published 2009)

system: male ddY mice; experiment: Stamina improvement: swimming until exhaustion in a running water pool; format: in vivo; conditions: material 10 mg/ml, oral 10 ml/kg once a day for seven days; 10 animals per group; relative value, Comparative Example 21 (control) = 100
Text: The test solution was given to mice to check for the influence on the improvement of stamina. Five-week-old male ddY mice (purchased from Japan SLC Co. Ltd.) were raised, letting them be free to take solid feed (CE-2, Japan Clare Co. Ltd., Tokyo) and water (10 mice per group). […] After one week of preparatory raising and swim training, they were allowed to freely take ordinary solid feed and water. […] On the day just before start of giving the test solution and on the 7th day after start of giving the test solution, the experimental animals were let to swim until exhaustion in the pool (velocity at center: 23.6 cm/sec.) to measure the swimming duration and to obtain the elongation of the swimming duration in seven days.

How did the “Elongation of swimming duration (%), without chicken extract powder” value turn out when antocyanine [Comparative Example 12] was run?
Its value is 120%.

`COC1=C(OC)C(=O)C(C/C=C(\C)CC/C=C(\C)CC/C=C(\C)CC/C=C(\C)CC/C=C(\C)CC/C=C(\C)CC/C=C(\C)CC/C=C(\C)CC/C=C(\C)CCC=C(C)C)=C(C)C1=O` [Comparative Example 14, ubiquinone (CoQ10)] was tested. Which “Elongation of swimming duration (%), without chicken extract powder” value did it give?
The value was 110%.

For `C/C=C1/[C@H](O[C@@H]2O[C@H](CO)[C@@H](O)[C@H](O)[C@H]2O)OC=C(C(=O)OC)[C@H]1CC(=O)OCCc1ccc(O)c(O)c1` [Comparative Example 13, oleuropein], which “Elongation of swimming duration (%), without chicken extract powder” value is on record?
The value was 120%.

Which “Elongation of swimming duration (%), without chicken extract powder” value does the source give for tocotrienol [Comparative Example 15] here?
The value was 120%.

Which “Elongation of swimming duration (%), without chicken extract powder” value does the source give for heme iron [Comparative Example 10] here?
The value was 110%.

`O=C(O)CCCCC1CCSS1` (stereo not drawn) [Comparative Example 9, thioctic acid] was tested. Which “Elongation of swimming duration (%), without chicken extract powder” value did it give?
Its value is 110%.

How did the “Elongation of swimming duration (%), without chicken extract powder” value turn out when “proanthocyanidin [Comparative Example 11]” was run?
Its value is 110%.

For `N=C(N)NCCC[C@H](N)C(=O)O` [Comparative Example 2, arginine], which “Elongation of swimming duration (%), without chicken extract powder” value is on record?
Its value is 110%.

For `O=C(O)CC(O)(CC(=O)O)C(=O)O` [Comparative Example 7, citric acid], which “Elongation of swimming duration (%), without chicken extract powder” value is on record?
The value was 110%.

How did the “Elongation of swimming duration (%), without chicken extract powder” value turn out when `CN(CC(=O)O)C(=N)N` [Comparative Example 1, creatine] was run?
The value was 110%.

For `Cn1c(=O)c2c(ncn2C)n(C)c1=O` [Comparative Example 6, caffeine], which “Elongation of swimming duration (%), without chicken extract powder” value is on record?
The value was 110%.

For `C[N+](C)(C)CC(O)CC(=O)[O-]` (stereo not drawn) [Comparative Example 8, carnitine], which “Elongation of swimming duration (%), without chicken extract powder” value is on record?
The value was 110%.
